{
  "source": "paper PMC3870792",
  "about": "(Neuropsychopharmacology, 2013)",
  "molecular_target": "GABAA receptor α2 subunit (α2β3γ2 GABAAR) (Rattus norvegicus, UniProt P18508+P23576)",
  "sequence (P23576 29-451)": "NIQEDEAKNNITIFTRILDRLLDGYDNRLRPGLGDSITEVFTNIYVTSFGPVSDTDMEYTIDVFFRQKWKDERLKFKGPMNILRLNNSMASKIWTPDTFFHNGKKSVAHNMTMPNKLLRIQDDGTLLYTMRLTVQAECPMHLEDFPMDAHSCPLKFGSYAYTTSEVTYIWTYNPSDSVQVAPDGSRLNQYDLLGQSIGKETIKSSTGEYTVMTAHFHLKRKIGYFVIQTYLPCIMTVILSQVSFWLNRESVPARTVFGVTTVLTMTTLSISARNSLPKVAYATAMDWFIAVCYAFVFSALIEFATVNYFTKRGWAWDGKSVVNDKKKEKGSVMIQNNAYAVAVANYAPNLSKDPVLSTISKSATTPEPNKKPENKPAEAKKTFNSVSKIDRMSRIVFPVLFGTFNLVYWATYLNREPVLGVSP",
  "sequence (P18508 39-466)": "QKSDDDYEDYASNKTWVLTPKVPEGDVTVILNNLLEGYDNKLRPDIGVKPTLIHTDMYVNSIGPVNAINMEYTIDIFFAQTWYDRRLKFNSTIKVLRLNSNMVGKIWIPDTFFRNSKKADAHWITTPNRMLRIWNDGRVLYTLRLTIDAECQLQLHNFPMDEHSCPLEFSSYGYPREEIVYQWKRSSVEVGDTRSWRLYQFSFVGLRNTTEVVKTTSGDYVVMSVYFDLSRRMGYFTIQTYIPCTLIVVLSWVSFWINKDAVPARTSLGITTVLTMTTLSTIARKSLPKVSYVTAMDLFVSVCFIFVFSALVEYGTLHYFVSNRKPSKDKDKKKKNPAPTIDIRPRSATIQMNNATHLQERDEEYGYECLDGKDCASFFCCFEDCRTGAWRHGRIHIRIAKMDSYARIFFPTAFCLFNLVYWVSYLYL",
  "sequence (P63079 26-473 partner)": "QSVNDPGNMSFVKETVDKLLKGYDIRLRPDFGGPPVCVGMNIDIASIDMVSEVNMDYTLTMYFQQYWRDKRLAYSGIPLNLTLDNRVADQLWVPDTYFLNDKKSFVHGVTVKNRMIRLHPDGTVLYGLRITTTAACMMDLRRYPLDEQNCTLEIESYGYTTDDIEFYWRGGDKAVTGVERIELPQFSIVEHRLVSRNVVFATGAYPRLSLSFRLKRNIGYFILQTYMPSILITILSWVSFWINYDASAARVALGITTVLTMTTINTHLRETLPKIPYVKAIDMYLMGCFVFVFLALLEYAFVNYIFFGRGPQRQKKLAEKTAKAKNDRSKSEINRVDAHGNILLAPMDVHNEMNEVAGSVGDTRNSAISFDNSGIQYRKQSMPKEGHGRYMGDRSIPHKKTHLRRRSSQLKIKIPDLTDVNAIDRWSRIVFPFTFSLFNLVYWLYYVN",
  "experiment": "[3H]Ro […]-4513 displacement on HEK293 membranes",
  "assay_type": "binding",
  "data": [
    {"smiles": "C#Cc1ccc2c(c1)C(c1ccccn1)=NCc1c(C(=O)OCC)ncn1-2", "note": "[compound 2 in Rivas et al, 2009, ethyl 8-ethynyl-6-(pyridin-2-yl)-4H-benzo[f]imidazo[1,5-a][1,4]diazepine-3-carboxylate]", "values": [
      {"measurement": "Ki", "result": "221 ± 22", "unit": "nM"}
    ]}
  ]
}
